# From PubChem BioAssay (NCI)
#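 Test compounds were applied to cells in 96-well plates for 48 hours at 5 doses. GI50 is the concentration that inhibits growth by half. TGI is the concentration that stops growth completely.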
# Key:
# Assay in all cases: inhibition of tumour cell growth, NCI panel, 48 h
# UACC-257 melanoma = tested on: UACC-257 melanoma
# IGROV1 ovarian = tested on: IGROV1 ovarian
# TK-10 renal = tested on: TK-10 renal
# SNB-19 CNS = tested on: SNB-19 CNS
# KM12 colon = tested on: KM12 colon
# MOLT-4 leukemia = tested on: MOLT-4 leukemia
# MCF7 breast = tested on: MCF7 breast
# NCI-H460 lung = tested on: NCI-H460 lung
# SK-MEL-2 melanoma = tested on: SK-MEL-2 melanoma
# MDA-MB-435 = tested on: MDA-MB-435
# HCT-15 colon = tested on: HCT-15 colon
# HOP-92 NSCLC = tested on: HOP-92 NSCLC
# CAKI-1 renal = tested on: CAKI-1 renal
# NCI-H522 lung = tested on: NCI-H522 lung
# K-562 leukemia = tested on: K-562 leukemia
# SF-539 CNS = tested on: SF-539 CNS
# EKVX NSCLC = tested on: EKVX NSCLC
# PC-3 prostate = tested on: PC-3 prostate
# A498 renal = tested on: A498 renal
# SNB-75 CNS = tested on: SNB-75 CNS
# CCRF-CEM leukemia = tested on: CCRF-CEM leukemia
# SK-OV-3 ovarian = tested on: SK-OV-3 ovarian
# DU-145 prostate = tested on: DU-145 prostate
# SK-MEL-28 melanoma = tested on: SK-MEL-28 melanoma
# SW-620 colon = tested on: SW-620 colon
# SF-295 CNS = tested on: SF-295 CNS
# OVCAR-4 ovarian = tested on: OVCAR-4 ovarian
# RXF 393 renal = tested on: RXF 393 renal
# M14 melanoma = tested on: M14 melanoma
# UACC-62 melanoma = tested on: UACC-62 melanoma
# HCC-2998 colon = tested on: HCC-2998 colon
# RPMI-8226 leukemia = tested on: RPMI-8226 leukemia
# NCI-H23 lung = tested on: NCI-H23 lung
# LOX IMVI melanoma = tested on: LOX IMVI melanoma
# BT-549 breast = tested on: BT-549 breast
# A549 NSCLC = tested on: A549 NSCLC
# OVCAR-3 ovarian = tested on: OVCAR-3 ovarian
# MALME-3M melanoma = tested on: MALME-3M melanoma
# SK-MEL-5 melanoma = tested on: SK-MEL-5 melanoma
# SR leukemia = tested on: SR leukemia
# COLO 205 colon = tested on: COLO 205 colon
# MDA-MB-231 breast = tested on: MDA-MB-231 breast
# OVCAR-5 ovarian = tested on: OVCAR-5 ovarian
# 786-0 renal = tested on: 786-0 renal
# ACHN renal = tested on: ACHN renal
# U251 CNS = tested on: U251 CNS
# UO-31 renal = tested on: UO-31 renal
# HL-60(TB) leukemia = tested on: HL-60(TB) leukemia
# NCI/ADR-RES ovarian = tested on: NCI/ADR-RES ovarian
# NCI-H226 lung = tested on: NCI-H226 lung
# MDA-N = tested on: MDA-N
# HCT-116 colon = tested on: HCT-116 colon
# OVCAR-8 ovarian = tested on: OVCAR-8 ovarian
# T-47D breast = tested on: T-47D breast
# HT29 colon = tested on: HT29 colon
# SN12C renal = tested on: SN12C renal
# SF-268 CNS = tested on: SF-268 CNS
# HOP-62 NSCLC = tested on: HOP-62 NSCLC
# HS 578T breast = tested on: HS 578T breast
compound,measurement,setting,value
CC1(C)OC(CCC#N)CN1C(=O)OCc1ccccc1 (centres undefined),TGI,UACC-257 melanoma,> 100 µM
same,TGI,IGROV1 ovarian,> 100 µM
same,TGI,TK-10 renal,> 100 µM
same,TGI,SNB-19 CNS,> 100 µM
same,TGI,KM12 colon,> 100 µM
same,TGI,MOLT-4 leukemia,> 100 µM
same,TGI,MCF7 breast,> 100 µM
same,TGI,NCI-H460 lung,> 100 µM
same,TGI,SK-MEL-2 melanoma,> 100 µM
same,TGI,MDA-MB-435,> 100 µM
same,TGI,HCT-15 colon,> 100 µM
same,TGI,HOP-92 NSCLC,> 100 µM
same,TGI,CAKI-1 renal,> 100 µM
same,TGI,NCI-H522 lung,> 100 µM
same,TGI,K-562 leukemia,> 100 µM
same,TGI,SF-539 CNS,> 100 µM
same,TGI,EKVX NSCLC,> 100 µM
same,TGI,PC-3 prostate,> 100 µM
same,TGI,A498 renal,> 100 µM
same,TGI,SNB-75 CNS,> 100 µM
same,TGI,CCRF-CEM leukemia,> 100 µM
same,TGI,SK-OV-3 ovarian,> 100 µM
same,TGI,DU-145 prostate,> 100 µM
same,TGI,SK-MEL-28 melanoma,> 100 µM
same,TGI,SW-620 colon,> 100 µM
same,TGI,SF-295 CNS,> 100 µM
same,TGI,OVCAR-4 ovarian,> 100 µM
same,TGI,RXF 393 renal,> 100 µM
same,TGI,M14 melanoma,> 100 µM
same,TGI,UACC-62 melanoma,> 100 µM
same,TGI,HCC-2998 colon,> 100 µM
same,TGI,RPMI-8226 leukemia,> 100 µM
same,TGI,NCI-H23 lung,> 100 µM
same,TGI,LOX IMVI melanoma,> 100 µM
same,TGI,BT-549 breast,> 100 µM
same,TGI,A549 NSCLC,> 100 µM
same,TGI,OVCAR-3 ovarian,> 100 µM
same,TGI,MALME-3M melanoma,> 100 µM
same,TGI,SK-MEL-5 melanoma,> 100 µM
same,TGI,SR leukemia,> 100 µM
same,TGI,COLO 205 colon,> 100 µM
same,TGI,MDA-MB-231 breast,> 100 µM
same,TGI,OVCAR-5 ovarian,> 100 µM
same,TGI,786-0 renal,> 100 µM
same,TGI,ACHN renal,> 100 µM
same,TGI,U251 CNS,> 100 µM
same,TGI,UO-31 renal,> 100 µM
same,TGI,HL-60(TB) leukemia,> 100 µM
same,TGI,NCI/ADR-RES ovarian,> 100 µM
same,TGI,NCI-H226 lung,> 100 µM
same,TGI,MDA-N,> 100 µM
same,TGI,HCT-116 colon,> 100 µM
same,TGI,OVCAR-8 ovarian,> 100 µM
c1ccc(-c2nc([P+](c3ccccc3)(c3ccccc3)c3ccccc3)c(N3CCOCC3)o2)cc1,GI50,UACC-257 melanoma,0.406 µM
same,TGI,UACC-257 melanoma,3.48 µM
same,GI50,IGROV1 ovarian,0.557 µM
same,TGI,IGROV1 ovarian,8.35 µM
same,GI50,TK-10 renal,2.75 µM
same,TGI,TK-10 renal,15 µM
same,GI50,SNB-19 CNS,0.483 µM
same,TGI,SNB-19 CNS,15 µM
same,GI50,KM12 colon,0.385 µM
same,TGI,KM12 colon,2.04 µM
same,GI50,MOLT-4 leukemia,2.26 µM
same,TGI,MOLT-4 leukemia,14.8 µM
same,GI50,MCF7 breast,0.388 µM
same,TGI,MCF7 breast,4.15 µM
same,GI50,NCI-H460 lung,2.48 µM
same,TGI,NCI-H460 lung,12 µM
same,GI50,SK-MEL-2 melanoma,0.88 µM
same,TGI,SK-MEL-2 melanoma,4.03 µM
same,GI50,MDA-MB-435,0.445 µM
same,TGI,MDA-MB-435,4.55 µM
same,GI50,HCT-15 colon,9.31 µM
same,TGI,HCT-15 colon,58.8 µM
same,GI50,HOP-92 NSCLC,0.446 µM
same,TGI,HOP-92 NSCLC,3.2 µM
same,GI50,CAKI-1 renal,2.26 µM
same,TGI,CAKI-1 renal,6.47 µM
same,GI50,T-47D breast,0.358 µM
same,TGI,T-47D breast,6.81 µM
same,GI50,NCI-H522 lung,0.665 µM
same,TGI,NCI-H522 lung,5.43 µM
same,GI50,K-562 leukemia,0.439 µM
same,TGI,K-562 leukemia,> 74.8 µM
same,GI50,SF-539 CNS,2.19 µM
same,TGI,SF-539 CNS,12.2 µM
same,GI50,EKVX NSCLC,2.31 µM
same,TGI,EKVX NSCLC,29.5 µM
same,GI50,PC-3 prostate,0.45 µM
same,TGI,PC-3 prostate,5.77 µM
same,GI50,A498 renal,1.71 µM
same,TGI,A498 renal,5.58 µM
same,GI50,SNB-75 CNS,0.393 µM
same,TGI,SNB-75 CNS,2.73 µM
same,GI50,CCRF-CEM leukemia,1.13 µM
same,TGI,CCRF-CEM leukemia,36.6 µM
same,GI50,SK-OV-3 ovarian,1.63 µM
same,TGI,SK-OV-3 ovarian,6.34 µM
same,GI50,DU-145 prostate,1.18 µM
same,TGI,DU-145 prostate,12.9 µM
same,GI50,SK-MEL-28 melanoma,0.704 µM
same,TGI,SK-MEL-28 melanoma,13.1 µM
same,GI50,HT29 colon,0.715 µM
same,TGI,HT29 colon,> 33.3 µM
same,GI50,SW-620 colon,0.926 µM
same,TGI,SW-620 colon,20.1 µM
same,GI50,SF-295 CNS,2.09 µM
same,TGI,SF-295 CNS,5.54 µM
same,GI50,OVCAR-4 ovarian,0.424 µM
same,TGI,OVCAR-4 ovarian,6.27 µM
same,GI50,RXF 393 renal,1.59 µM
same,TGI,RXF 393 renal,7.42 µM
same,GI50,M14 melanoma,1.56 µM
same,TGI,M14 melanoma,10.9 µM
same,GI50,UACC-62 melanoma,0.589 µM
same,TGI,UACC-62 melanoma,2.94 µM
same,GI50,SN12C renal,0.934 µM
same,TGI,SN12C renal,9.15 µM
same,GI50,HCC-2998 colon,1.04 µM
same,TGI,HCC-2998 colon,12.4 µM
same,GI50,RPMI-8226 leukemia,0.295 µM
same,TGI,RPMI-8226 leukemia,1.43 µM
same,GI50,NCI-H23 lung,1.91 µM
same,TGI,NCI-H23 lung,7.24 µM
same,GI50,LOX IMVI melanoma,1.49 µM
same,TGI,LOX IMVI melanoma,3.9 µM
same,GI50,BT-549 breast,0.523 µM
same,TGI,BT-549 breast,6.77 µM
same,GI50,A549 NSCLC,2.83 µM
same,TGI,A549 NSCLC,48.6 µM
same,GI50,OVCAR-3 ovarian,0.474 µM
same,TGI,OVCAR-3 ovarian,4.28 µM
same,GI50,MALME-3M melanoma,0.529 µM
same,TGI,MALME-3M melanoma,6.13 µM
same,GI50,SK-MEL-5 melanoma,0.654 µM
same,TGI,SK-MEL-5 melanoma,1.96 µM
same,GI50,SR leukemia,0.655 µM
same,TGI,SR leukemia,20 µM
same,GI50,COLO 205 colon,0.477 µM
same,TGI,COLO 205 colon,2.07 µM
same,GI50,SF-268 CNS,0.844 µM
same,TGI,SF-268 CNS,11.1 µM
same,GI50,MDA-MB-231 breast,0.92 µM
same,TGI,MDA-MB-231 breast,7.12 µM
same,GI50,OVCAR-5 ovarian,2.45 µM
same,TGI,OVCAR-5 ovarian,12.8 µM
same,GI50,786-0 renal,3.92 µM
same,TGI,786-0 renal,28.8 µM
same,GI50,HOP-62 NSCLC,2.11 µM
same,TGI,HOP-62 NSCLC,10.6 µM
same,GI50,ACHN renal,3.07 µM
same,TGI,ACHN renal,12.7 µM
same,GI50,U251 CNS,0.483 µM
same,TGI,U251 CNS,11.9 µM
same,GI50,UO-31 renal,6.37 µM
same,TGI,UO-31 renal,25.7 µM
same,GI50,HL-60(TB) leukemia,0.322 µM
same,TGI,HL-60(TB) leukemia,1.6 µM
same,GI50,NCI/ADR-RES ovarian,> 76.4 µM
same,TGI,NCI/ADR-RES ovarian,> 100 µM
same,GI50,NCI-H226 lung,1.98 µM
same,TGI,NCI-H226 lung,8.5 µM
same,GI50,HS 578T breast,1.62 µM
same,TGI,HS 578T breast,11.7 µM
same,GI50,HCT-116 colon,1.04 µM
same,TGI,HCT-116 colon,10.7 µM
same,GI50,OVCAR-8 ovarian,1.18 µM
same,TGI,OVCAR-8 ovarian,10.2 µM
